Measurements from patent US11214835B1, “Methods and compositions for diagnosis and management of neurodegerative diseases” (UNIVERSITY OF SOUTH FLORIDA, priority 2017, dated 2022).
Where two headings read alike, the source gives them in different places.

How the values were obtained:
GAS5 [1] = assay: Binding of side-chain derivatives to GAS5 (preliminary data)
HT22 cells [2] = assay: Toxicity of side-chain derivatives to HT22 cells (preliminary data)
[3] = test system: aged normal and aged diabetic (db/db) mice; assay: Radial arm water maze (RAWM) after intranasal insulin in aged normal and db/db mice; assay type: in vivo, mouse; settings: 1 unit/ml daily for 3 weeks, both normal aged and aged diabetic mice
Text: (§1) Diabetes increases the risk for impaired cognitive function and dementia by 47%. Patients with T2DM have cognitive deficits affecting verbal and nonverbal memory, attention, information processing speed, and executive function. To assess the cognitive function with respect to insulin resistance in vivo, aged diabetic mice BKS.Cg-+ Lepr^db/+ Lepr^db/OlaHsd (Older db/db mice from Harlan were used; 11 months—as this mouse model has lower life span) along with their normal age-matched controls. We measured the levels of GAS5 and insulin receptor (IR) in young (4 months) and db/db mice along with their age-matched control mice. The hippocampi of the mice were collected and SYBR Green qPCR was performed. […] Intranasal insulin delivery is a noninvasive method that bypasses the blood-brain barrier and delivers insulin to the brain and the spinal cord. Biologically effective concentrations of insulin can be achieved without systemic side effects.
(§2) After intranasal administration, insulin and peptide analogues begin to accumulate in the CSF within 30 minutes. Intranasal insulin directly improves learning and memory and has no effect on circulating blood glucose levels. Thus, the effects may reflect activation of neuronal insulin signaling pathways. […] Errors (incorrect arm choices) and escape latency were recorded for each daily trial (FIGS. 3B-3C).

insulin receptor (IR) = assay: Insulin receptor levels after intranasal insulin treatment; assay type: in vivo, mouse
Text: as §1, §2

neurons = assay: Immunohistochemistry after insulin treatment; assay type: in vivo, mouse
Protocol: FIGS. 4A-4B show panels fluorescent microscopic images of the results from Immuno histochemical analysis post insulin treatment in neron cells. The bar in the images of the panel of FIG. 4B is 20 μm.
After intranasal administration, insulin and peptide analogues begin to accumulate in the CSF within 30 minutes. Intranasal insulin directly improves learning and memory and has no effect on circulating blood glucose levels. Thus, the effects may reflect activation of neuronal insulin signaling pathways. The age-matched control and db/db mice cohorts were treated with intranasal insulin (1 unit/ml, daily for 3 weeks) and the radial arm water maze (RAWM) was used for cognitive assessment. Errors (incorrect arm choices) and escape latency were recorded for each daily trial (FIGS. 3B-3C).

GAS5 [4] = assay: GAS5 levels in NDM adipocytes after insulin, real-time qPCR; assay type: cell-based, human; settings: about 10 nM, 24 hours
Text: Depletion of GAS5 decreases glucose uptake: Adipose tissue is the primary target for insulin-mediated glucose uptake. […] To maintain reproducibility over a larger number of experiments, adipose stem cells derived from normal or diabetic patients were purchased from Zenbio (BMI 20-24, Nondiabetic HbA1C 5.9 (hereafter referred as NDM); T2DM HbA1c 8.5 (hereafter referred as DM)). The adipose stem cells (ASC) were differentiated in vitro to mature adipocytes and used in experiments. GAS5 siRNA (10 nM, Ambion 332778, validated; scrambled siRNA as control) was transfected in NDM pre-adipocytes for 48 h, differentiated to mature NDM adipocytes for 8 days and knockdown confirmed by GAS5 SYBR Green qPCR. We determined the effect of GAS5 depletion on glucose uptake by NDM adipocytes. Cells were serum starved, 10 nM insulin was added to cells for 30 minutes and [^3H]-deoxy-2-D-Glucose uptake was measured. Results indicated a decrease in glucose uptake in GAS5 depleted NDM adipocytes ***p<0.001, highly significant using two-tailed students t-test.
About 10 nM insulin was added to NDM adipocytes for 24 hours. […] Separately, GAS5 was depleted in NDM adipocytes using GAS5 siRNA as described above to evaluate the insulin receptor mediated PI3K→AKT pathway. Whole cell lysates were evaluated by western blot analysis using antibodies against p-AKT and total AKT.

[5] = after intranasal administration; cited from earlier work
GAS5 lncRNA = assay: γ-AApeptide OBOC combinatorial library screen with fluorescein tagged GAS5 oligonucleotide, hits validated in vitro; assay type: binding; settings: fluorescein tagged GAS5 oligonucleotide probe, tRNA as control
Text: The interaction between UPF1 and GAS5 was disrupted using a γ-AApeptide based one-bead-one-compound (OBOC) combinatorial library (Wu H, Li Y, Bai G, Niu Y, Qiao Q, Tipton J D, Cao C, Cai J. gamma-AApeptide-based small-molecule ligands that inhibit Abeta aggregation. Chemical communications. 2014; 50(40):5206-8. doi: 10.1039/c3cc46685j. PubMed PMID: 24158240). The γ-AApeptide is a peptidomimetic with side chains for chemical diversity and are resistant to proteolytic cleavage. To screen the compound library, a probe that contained a fluorescein tagged oligonucleotide was synthesized. The probe spanned 30 nucleotides on either side of the UAA sequences on GAS5 (FIG. 13) The fluorescein was attached to the 5′end (beginning of oligonucleotide probe sequence). The nucleotide sequence within the GAS5 IncRNA that the oligonucleotide probe binds to can be about 100% identical to […] (SEQ ID NO: 4), which is nucleotides 541 to 651 of SEQ ID NO: 1. The underlined regions indicate the UAA that is the target regions. As such, the oligonucleotide probe was designed to flank both sides of these target regions.
The length of oligonucleotide was required to maintain stem loop structure to specifically bind to GAS5. Further, we modeled the oligonucleotide (RNAfold software) to evaluate its folding and verified absence of any unwanted secondary structures. The backbone was modified by 2′-MOE (2′-O-methoxyethylribose), which protects it from degradation and a fluoroscein tag was attached to the 5′end to aid in screening. The oligonucleotide probe was used to screen 160,000 molecules in the combinatorial library using tRNA as control (as tRNA has similar stem loop secondary structures). […] The compound having a structure according to Formula 3 was determined to have a chemical formula of C68H92N10O9S, a mass of about 1224.6769, and a molecular weight of 1225.6050. The compound having a structure according to Formula 14 was determined to have a chemical formula of C63H85N9O13S, a mass of about 1207.5988, and a molecular weight of 1208.4830. […]

HT22 cells [6] = settings: mouse

Compound: CC(C)C[C@H]1CN(CC(N)=O)C(=O)CCSCc2ccc(cc2)C(=O)N[C@@H](C)CN(C(=O)CCc2ccccc2)CC(=O)N[C@@H](CC(C)C)CN(C(=O)CC2CC2)CC(=O)N[C@@H](CCCCN)CN(C(=O)CCC2CCCCC2)CC(=O)N1 [YS-D-66]
- binding to GAS5 (GAS5 [1]): bound efficiently to GAS5
- toxicity to HT22 cells (HT22 cells [2]): not toxic to HT22 cells

Compound: insulin
- cognitive performance in RAWM (errors, escape latency) [3]: improved the cognitive performance
- levels of IR (insulin receptor (IR)): did not increase
- neurogenesis (neurons): increased
- neuronal proliferation (neurons): increased
- GAS5 levels in NDM adipocytes (GAS5 [4]): increase in GAS5 levels
- time to begin to accumulate in the CSF [5]: ≤ 30 min

Compound: C[C@H]1CN(C(=O)CC2CC2)CC(=O)N[C@@H](CCC(=O)O)CN(C(=O)CCC2CCCCC2)CC(=O)N[C@@H](Cc2ccccc2)CN(CC(N)=O)C(=O)CCSCc2ccc(cc2)C(=O)N[C@@H](Cc2ccccc2)CN(C(=O)CCC(=O)O)CC(=O)N1 [Formula 14]
- ability to bind GAS5 (identified and validated from library screen) (GAS5 lncRNA): able to bind GAS5

Compound: NCCCC[C@H]1CN(C(=O)CCCN)CC(=O)N[C@@H](CCC(=O)O)CN(CC(N)=O)C(=O)CCSCc2ccc(cc2)C(=O)N[C@@H](CCCCN)CN(C(=O)CCC(=O)O)CC(=O)N[C@@H](Cc2ccccc2)CN(C(=O)CCc2ccccc2)CC(=O)N1 [YS-D-70]
- binding to GAS5 (GAS5 [1]): bound efficiently to GAS5
- toxicity to HT22 cells (HT22 cells [6]): not toxic to HT22 cells

Compound: CC(C)C[C@H]1CN(C(=O)CCc2ccccc2)CC(=O)N[C@@H](Cc2ccccc2)CN(C(=O)CC2CC2)CC(=O)N[C@@H](Cc2ccccc2)CN(CC(N)=O)C(=O)CCSCc2ccc(cc2)C(=O)N[C@@H](CCCCN)CN(C(=O)CCc2ccccc2)CC(=O)N1 [YS-D-68]
- binding to GAS5 (GAS5 [1]): bound efficiently to GAS5
- toxicity to HT22 cells (HT22 cells [2]): not toxic to HT22 cells

Compound: CC(C)C[C@H]1CN(C(=O)CCc2ccccc2)CC(=O)N[C@@H](Cc2ccccc2)CN(C(=O)CC2CC2)CC(=O)N[C@@H](Cc2ccccc2)CN(CC(N)=O)C(=O)CCSCc2ccc(cc2)C(=O)N[C@@H](Cc2ccccc2)CN(C(=O)CCCN)CC(=O)N1 [YS-D-69]
- binding to GAS5 (GAS5 [1]): bound efficiently to GAS5
- toxicity to HT22 cells (HT22 cells [2]): not toxic to HT22 cells
